Paper PMC10660663

Experiment: SuFEx S-O bond formation: di-sulfonimidoyl fluoride (mixture of diastereomers) + diphenol (1:1), DBU 2.1 equiv, [1+1] macrocyclisation, one pot
Settings: the molecule shown is the open-chain precursor, MeCN, 20.0 mM, 50.0 °C

Cc1ccc(S(=O)(F)=NC(=O)c2ccc(Oc3ccc(C(=O)N=S(=O)(Oc4cccc(Oc5cccc(Oc6cccc(O)c6)c5)c4)c4ccc(C)cc4)cc3)cc2)cc1 (centres unmarked) [3k]
ring closure, isolated yield (28-membered ring, 3.0 h): 88%

Cc1ccc(S(=O)(F)=NC(=O)c2ccc(Oc3ccc(C(=O)N=S(=O)(Oc4ccc(OCCOc5ccc(O)cc5)cc4)c4ccc(C)cc4)cc3)cc2)cc1 (centres unmarked) [3l]
ring closure, isolated yield (29-membered ring, 3.0 h): 67%

Cc1ccc(S(=O)(F)=NC(=O)c2ccc(Oc3ccc(C(=O)N=S(=O)(Oc4ccc(OCCCCOc5ccc(O)cc5)cc4)c4ccc(C)cc4)cc3)cc2)cc1 (centres unmarked) [3m]
ring closure, isolated yield (31-membered ring, 3.0 h): 78%

Cc1ccc(S(=O)(F)=NC(=O)c2cccc(C(=O)N=S(=O)(Oc3ccc(SSc4ccc(O)cc4)cc3)c3ccc(C)cc3)c2)cc1 (centres unmarked) [3n]
ring closure, isolated yield (21-membered ring, 3.0 h): 72%

Cc1ccc(S(=O)(F)=NC(=O)c2cccc(C(=O)N=S(=O)(Oc3ccc(C(C)(C)c4cccc(C(C)(C)c5ccc(O)cc5)c4)cc3)c3ccc(C)cc3)c2)cc1 (centres unmarked) [3o (isophthaloyl)]
ring closure, isolated yield (24-membered ring, 3.0 h): 70%

Cc1ccc(S(=O)(F)=NC(=O)c2cccc(C(=O)N=S(=O)(Oc3cccc(Oc4cccc(Oc5cccc(O)c5)c4)c3)c3ccc(C)cc3)c2)cc1 (centres unmarked) [3p]
ring closure, isolated yield (22-membered ring, 3.0 h): 69%

Cc1ccc(S(=O)(F)=NC(=O)c2cccc(C(=O)N=S(=O)(Oc3ccc(OCCOc4ccc(O)cc4)cc3)c3ccc(C)cc3)c2)cc1 (centres unmarked) [3q]
ring closure, isolated yield (23-membered ring, 3.0 h): 64%

Cc1ccc(S(=O)(F)=NC(=O)c2cccc(C(=O)N=S(=O)(Oc3ccc(SSc4ccc(O)cc4)cc3)c3ccc(C)cc3)n2)cc1 (centres unmarked) [3r]
ring closure, isolated yield (21-membered ring, 3.0 h): 91%

Cc1ccc(S(=O)(F)=NC(=O)c2ccc(-c3ccc(C(=O)N=S(=O)(Oc4ccccc4CNCCCCCCNCc4ccccc4O)c4ccc(C)cc4)cc3)cc2)cc1 (centres unmarked) [3s]
ring closure, isolated yield (30-membered ring, 3.0 h): 80%

Cc1ccc(S(=O)(F)=NC(=O)c2ccc(-c3ccc(C(=O)N=S(=O)(Oc4ccc(C(C)(C)c5cccc(C(C)(C)c6ccc(O)cc6)c5)cc4)c4ccc(C)cc4)cc3)cc2)cc1 (centres unmarked) [3t]
ring closure, isolated yield (29-membered ring, 3.0 h): 90%

Cc1ccc(S(=O)(F)=NC(=O)c2ccc(C(=O)N=S(=O)(Oc3ccc(Cc4ccc(O)cc4)cc3)c3ccc(C)cc3)cc2)cc1 (centres unmarked) [3u (10 mM, 6 h)]
ring closure, isolated yield (21-membered ring, 6.0 h): 94%
